Assay results as given in ChEMBL document CHEMBL1139048, “Synthesis and in vitro antitumoral activity of new 3,5-dicyanopyridine derivatives” (2007).
Each block holds one compound with its values, some of them ahead of it.

Key:
Format in all cases: functional
[1] = tested on: A498; assay: Antiproliferative activity against human A498 cells after 48 hrs by SRB protein assay; conditions: A498, 48 h
[2] = tested on: NCI-H522; assay: Antiproliferative activity against human NCI-H522 cells after 48 hrs by SRB protein assay; conditions: NCI-H522, 48 h
[3] = tested on: SNB-75; assay: Antiproliferative activity against human SNB75 cells after 48 hrs by SRB protein assay; conditions: SNB-75, 48 h
[4] = tested on: OVCAR-3; assay: Antiproliferative activity against human OVCAR-3 cells after 48 hrs by SRB protein assay; conditions: OVCAR-3, 48 h
[5] = tested on: CAKI-1; assay: Antiproliferative activity against human CAKI1 cells after 48 hrs by SRB protein assay; conditions: CAKI-1, 48 h
[6] = tested on: MDA-MB-231; assay: Antiproliferative activity against human MDA-MB-231 cells after 48 hrs by SRB protein assay; conditions: MDA-MB-231, 48 h
[7] = tested on: MDA-MB-435; assay: Antiproliferative activity against human MDA-MB-435 cells after 48 hrs by SRB protein assay; conditions: MDA-MB-435, 48 h
[8] = tested on: IGROV-1; assay: Antiproliferative activity against human IGROV1 cells after 48 hrs by SRB protein assay; conditions: IGROV-1, 48 h
[9] = tested on: SK-OV-3; assay: Antiproliferative activity against human SKOV3 cells after 48 hrs by SRB protein assay; conditions: SK-OV-3, 48 h
[10] = tested on: T47D; assay: Antiproliferative activity against human T47D cells after 48 hrs by SRB protein assay
[11] = tested on: HCC 2998; assay: Antiproliferative activity against human HCC2998 cells after 48 hrs by SRB protein assay; conditions: HCC 2998, 48 h
[12] = tested on: MCF7; assay: Antiproliferative activity against human MCF7 cells after 48 hrs by SRB protein assay; conditions: MCF7, 48 h
[13] = tested on: K562; assay: Antiproliferative activity against human K562 cells after 48 hrs by SRB protein assay; conditions: K562, 48 h
[14] = tested on: HOP-62; assay: Antiproliferative activity against human HOP62 cells after 48 hrs by SRB protein assay; conditions: HOP-62, 48 h
[15] = tested on: HCT-116; assay: Antiproliferative activity against human HCT116 cells after 48 hrs by SRB protein assay; conditions: HCT-116, 48 h
[16] = tested on: HT-29; assay: Antiproliferative activity against human HT29 cells after 48 hrs by SRB protein assay; conditions: HT-29, 48 h
[17] = tested on: U-251; assay: Antiproliferative activity against human U251 cells after 48 hrs by SRB protein assay; conditions: U-251, 48 h
[18] = tested on: Malme-3M; assay: Antiproliferative activity against human MALME3M cells after 48 hrs by SRB protein assay
[19] = tested on: M14; assay: Antiproliferative activity against human M14 cells after 48 hrs by SRB protein assay; conditions: M14, 48 h
[20] = tested on: NCI/ADR-RES; assay: Antiproliferative activity against human NCI/ADR-RES cells after 48 hrs by SRB protein assay
[21] = tested on: COLO 205; assay: Antiproliferative activity against human COLO205 cells after 48 hrs by SRB protein assay; conditions: COLO 205, 48 h
[22] = tested on: SR; assay: Antiproliferative activity against human SR cells after 48 hrs by SRB protein assay
[23] = tested on: HOP-92; assay: Antiproliferative activity against human HOP92 cells after 48 hrs by SRB protein assay; conditions: HOP-92, 48 h
[24] = tested on: RXF 393; assay: Antiproliferative activity against human RXF393 cells after 48 hrs by SRB protein assay; conditions: RXF 393, 48 h
[25] = tested on: UO-31; assay: Antiproliferative activity against human UO31 cells after 48 hrs by SRB protein assay; conditions: UO-31, 48 h
[26] = tested on: NCI-H460; assay: Antiproliferative activity against human NCI-H460 cells after 48 hrs by SRB protein assay; conditions: NCI-H460, 48 h
[27] = tested on: CCRF-CEM; assay: Antiproliferative activity against human CCRF-CEM cells after 48 hrs by SRB protein assay
[28] = tested on: MOLT-4; assay: Antiproliferative activity against human MOLT4 cells after 48 hrs by SRB protein assay; conditions: MOLT-4, 48 h
[29] = tested on: RPMI-8226; assay: Antiproliferative activity against human RPMI8226 cells after 48 hrs by SRB protein assay; conditions: RPMI-8226, 48 h
[30] = tested on: NCI-H226; assay: Antiproliferative activity against human NCI-H226 cells after 48 hrs by SRB protein assay; conditions: NCI-H226, 48 h
[31] = tested on: SF-295; assay: Antiproliferative activity against human SF295 cells after 48 hrs by SRB protein assay; conditions: SF-295, 48 h
[32] = tested on: LOX IMVI; assay: Antiproliferative activity against human LOXIMVI cells after 48 hrs by SRB protein assay
[33] = tested on: SK-MEL-5; assay: Antiproliferative activity against human SK-MEL-5 cells after 48 hrs by SRB protein assay; conditions: SK-MEL-5, 48 h
[34] = tested on: UACC-62; assay: Antiproliferative activity against human UACC62 cells after 48 hrs by SRB protein assay; conditions: UACC-62, 48 h
[35] = tested on: ACHN; assay: Antiproliferative activity against human ACHN cells after 48 hrs by SRB protein assay
[36] = tested on: SN12C; assay: Antiproliferative activity against human SN12C cells after 48 hrs by SRB protein assay

GI50 [2]: 0.0234 µM
SMILES: N#Cc1c(N)nc(N2CCOCC2)c(C#N)c1-c1ccccc1Cl
GI50 [1]: 2.29 µM | TGI ([2]; read-out: Log TGI (converted)): 2.82 µM | GI50 [3]: 0.417 µM

SMILES: N#Cc1c(N)nc(N2CCOCC2)c(C#N)c1-c1c(Cl)cccc1Cl
GI50 [4]: 2.4 µM | GI50 [1]: 3.72 µM | GI50 [5]: 2.24 µM | GI50 [6]: 3.55 µM | GI50 [7]: 1.55 µM | GI50 [2]: 2.34 µM | GI50 [8]: 2 µM | GI50 [9]: 4.07 µM | GI50 [10]: 3.39 µM | GI50 [3]: 1.74 µM | GI50 [11]: 0.0182 µM | LC50 [11]: 20 µM | TGI ([11]; read-out: Log TGI (converted)): 2.45 µM | GI50 [12]: 2.95 µM | GI50 [13]: 3.31 µM | GI50 [14]: 3.55 µM | GI50 [15]: 3.09 µM | GI50 [16]: 3.31 µM | GI50 [17]: 3.89 µM | GI50 [18]: 3.72 µM | GI50 [19]: 2.45 µM | GI50 [20]: 2.34 µM

GI50 [2]: 8.71 µM | GI50 [21]: 2.14 µM | GI50 [9]: 5.01 µM | GI50 [10]: 0.832 µM
SMILES: COc1ccc(-c2c(C#N)c(N)nc(N3CCOCC3)c2C#N)cc1
GI50 [1]: 7.41 µM | GI50 [8]: 3.09 µM

GI50 [21]: 5.62 µM | GI50 [10]: 15.1 µM | GI50 [11]: 5.89 µM
SMILES: COc1cc(-c2c(C#N)c(N)nc(N3CCOCC3)c2C#N)cc(OC)c1OC
GI50 [22]: 13.5 µM | GI50 [3]: 1.62 µM

GI50 [11]: 8.71 µM
SMILES: N#Cc1c(N)nc(N2CCOCC2)c(C#N)c1-c1cccnc1

SMILES: N#Cc1c(N)nc(N2CCOCC2)c(C#N)c1-c1ccc(Cl)cc1
GI50 [23]: 8.91 µM | GI50 [1]: 8.13 µM | GI50 [8]: 14.1 µM | GI50 [3]: 14.5 µM | GI50 [24]: 0.479 µM

SMILES: N#Cc1c(N)nc(N2CCSCC2)c(C#N)c1-c1ccc(O)cc1
GI50 [22]: 11.2 µM | GI50 [23]: 10 µM | GI50 [3]: 11 µM | GI50 [14]: 12.6 µM

GI50 [9]: 12 µM
SMILES: COc1ccc(OC)c(-c2c(C#N)c(N)nc(N3CCOCC3)c2C#N)c1
GI50 [3]: 12.9 µM

GI50 [10]: 12.6 µM | GI50 [11]: 13.5 µM
SMILES: N#Cc1c(N)nc(N2CCOCC2)c(C#N)c1-c1ccncc1
GI50 [1]: 18.6 µM | GI50 [8]: 12.3 µM | GI50 [18]: 9.12 µM

SMILES: N#Cc1c(N)nc(N2CCOCC2)c(C#N)c1-c1cccc(O)c1
GI50 [1]: 14.8 µM | GI50 [8]: 18.6 µM | GI50 [3]: 17.4 µM

SMILES: Cc1ccc(-c2c(C#N)c(N)nc(N3CCOCC3)c2C#N)o1
GI50 [3]: 2.75 µM

GI50 [7]: 5.75 µM | GI50 [2]: 4.79 µM | GI50 [26]: 9.33 µM | GI50 [12]: 8.71 µM
SMILES: N#Cc1c(N)nc(N2CCOCC2)c(C#N)c1-c1ccc(Cl)cc1Cl
GI50 [23]: 3.31 µM | GI50 [1]: 2.69 µM | GI50 [8]: 6.61 µM | GI50 [3]: 6.31 µM | GI50 [24]: 5.62 µM | GI50 [25]: 3.24 µM

GI50 [27]: 3.39 µM | GI50 [28]: 3.31 µM | GI50 [29]: 3.09 µM | GI50 [30]: 2.88 µM | GI50 [33]: 1.7 µM | GI50 [4]: 3.31 µM | GI50 [35]: 2.63 µM | GI50 [6]: 2.24 µM | GI50 [7]: 2.88 µM
SMILES: N#Cc1c(NCc2ccccc2)nc(NCc2ccccc2)c(C#N)c1-c1cccc(O)c1
GI50 [22]: 2.09 µM | GI50 [23]: 2.51 µM | GI50 [31]: 2.95 µM | GI50 [32]: 2.95 µM | GI50 [34]: 2.09 µM | GI50 [1]: 2 µM | GI50 [5]: 2.75 µM | GI50 [36]: 2.29 µM

GI50 [30]: 0.513 µM
SMILES: N#Cc1c(N)nc(N2CCOCC2)c(C#N)c1-c1ccccn1
GI50 [34]: 0.0339 µM | GI50 [36]: 0.038 µM
